# Experimental data reported in paper PMC8286840, “Identifying SARS-CoV-2 antiviral compounds by screening for small molecule inhibitors of Nsp3 papain-like protease” (Biochemical Journal, 2021).
# Counter-ions that a name gives are not always drawn. Like-named read-outs stand apart in the source and are kept apart here.
# How the values were obtained:
# [1] = biological target: T1, SARS-CoV-2 PLpro (nsp3 1564–1878) (Severe acute respiratory syndrome coronavirus 2, UniProt P0DTD1); experiment: biochemical; set-up: FRET-quenched peptide (Pro3) cleavage by PLpro, 10 min pre-incubation, slope over 20 min, normalised to no-compound control; conditions: high concentration screen, read-out: % of control remaining
# [2] = biological target: T1, SARS-CoV-2 PLpro (nsp3 1564–1878); experiment: biochemical; set-up: FRET-quenched peptide (Pro3) cleavage by PLpro, 10 min pre-incubation, slope over 20 min, normalised to no-compound control; conditions: low concentration screen, read-out: % of control remaining
compound,measurement,setting,value
N#C[C@@H]1C[C@@H]2C[C@@H]2N1C(=O)[C@@H](N)C12CC3CC(CC(O)(C3)C1)C2 [Saxagliptin hydrate],remaining activity at 3.75 µM,[1]; Well no.=8254,102%
same,remaining activity at 1.25 µM,[2]; Well no.=8254,104%
COc1cc2c(c(OC)c1OC)-c1c(cc(OC)c(OC)c1OC)C[C@](C)(O)[C@@H](C)C2 [Schisandrin],remaining activity at 3.75 µM,[1]; Well no.=5408,101%
same,remaining activity at 1.25 µM,[2]; Well no.=5408,95.6%
C=C[C@](C)(O)CC[C@@H]1[C@@]2(C)CCCC(C)(C)[C@@H]2CC[C@@]1(C)O [Sclareol],remaining activity at 3.75 µM,[1]; Well no.=3388,96.1%
same,remaining activity at 1.25 µM,[2]; Well no.=3388,91.2%
CC[C@H](C)/C=C(C)/C=C/C1=CC2=C(Cl)C(=O)[C@](C)(OC(C)=O)C(=O)C2=CO1 [Sclerotiorin],remaining activity at 3.75 µM,[1]; Well no.=3604,98.6%
same,remaining activity at 1.25 µM,[2]; Well no.=3604,100%
CN1[C@@H]2CC(O)C[C@H]1[C@@H]1O[C@@H]12 (stereo partly shown) [Scopine (hydrochloride)],remaining activity at 3.75 µM,[1]; Well no.=6555,101%
same,remaining activity at 1.25 µM,[2]; Well no.=6555,94.2%
CN1[C@@H]2CC(O)C[C@H]1[C@@H]1O[C@@H]12 (stereo partly shown) [Scopine HCl],remaining activity at 3.75 µM,[1]; Well no.=4914,84%
same,remaining activity at 1.25 µM,[2]; Well no.=4914,87.1%
CN1[C@@H]2CC(O)C[C@H]1[C@@H]1O[C@@H]12 (stereo partly shown) [Scopine],remaining activity at 3.75 µM,[1]; Well no.=4910,92.3%
same,remaining activity at 1.25 µM,[2]; Well no.=4910,95.8%
CN1[C@@H]2C[C@@H](OC(=O)[C@H](CO)c3ccccc3)C[C@H]1[C@@H]1O[C@@H]12 [Scopolamine (hydrobromide)],remaining activity at 3.75 µM,[1]; Well no.=6670,105%
same,remaining activity at 1.25 µM,[2]; Well no.=6670,102%
CCCC[N+]1(C)[C@H]2CC(OC(=O)C(CO)c3ccccc3)C[C@H]1[C@H]1O[C@H]12 (stereo partly shown) [Scopolamine N-butyl],remaining activity at 3.75 µM,[1]; Well no.=2243,91.9%
same,remaining activity at 1.25 µM,[2]; Well no.=2243,95%
CCCC[N+]1(C)[C@@H]2C[C@@H](OC(=O)[C@H](CO)c3ccccc3)C[C@H]1[C@@H]1O[C@@H]12 (stereo partly shown) [Scopolamine N-butylbromide],remaining activity at 3.75 µM,[1]; Well no.=3355,98.9%
same,remaining activity at 1.25 µM,[2]; Well no.=3355,99.9%
CN1[C@@H]2C[C@@H](OC(=O)[C@H](CO)c3ccccc3)C[C@H]1[C@@H]1O[C@@H]12 [Scopolamine],remaining activity at 3.75 µM,[1]; Well no.=2245,100%
same,remaining activity at 1.25 µM,[2]; Well no.=2245,100%
COc1cc2ccc(=O)oc2cc1O [Scopoletin],remaining activity at 3.75 µM,[1]; Well no.=3461,102%
same,remaining activity at 1.25 µM,[2]; Well no.=3461,103%
"O=C1C(C2=C3c4ccccc4NC3/C(=C\c3ccc(O)cc3)C2=O)=C2C(=Nc3ccccc32)/C1=C\c1ccc(O)cc1 (stereo not shown) [Scytonemin, Lyngbya sp.]",remaining activity at 3.75 µM,[1]; Well no.=2669,101%
same,remaining activity at 1.25 µM,[2]; Well no.=2669,96.6%
C[Se]C[C@H](N)C(=O)O [Se-(methyl)selenocysteine hydrochloride],remaining activity at 3.75 µM,[1]; Well no.=1124,95.6%
same,remaining activity at 1.25 µM,[2]; Well no.=1124,97.3%
Cc1ncc([N+](=O)[O-])n1CC(C)O (stereo not shown) [Secnidazole],remaining activity at 3.75 µM,[1]; Well no.=2247,97.7%
same,remaining activity at 1.25 µM,[2]; Well no.=2247,99.7%
CO[C@@H](C[C@@H]1CC[C@@H](C)[C@](O)(C(=O)C(=O)N2CCCC[C@H]2C(=O)O)O1)/C(C)=C/C=C/C=C/[C@@H](C)C[C@@H](C)C(=O)[C@H](OC)[C@H](O)/C(C)=C/[C@@H](C)C(=O)/C=C/[C@H](C)C[C@@H]1CC[C@@H](O)[C@H](OC)C1 [Seco Rapamycin (sodium salt)],remaining activity at 3.75 µM,[1]; Well no.=7642,95.9%
same,remaining activity at 1.25 µM,[2]; Well no.=7642,97.4%
O=C1C=C2C=C[C@@H]3C[C@@]2(O1)[C@H]1CCCCN31 [Securinine],remaining activity at 3.75 µM,[1]; Well no.=3749,100%
same,remaining activity at 1.25 µM,[2]; Well no.=3749,99.6%
CCCCC1OC(=O)C2=CCCCC21 (stereo not shown) [Sedanolide],remaining activity at 3.75 µM,[1]; Well no.=3751,98.7%
same,remaining activity at 1.25 µM,[2]; Well no.=3751,92.6%
CC(C)[C@@H]1NC(=O)[C@H](CCCCN)NC(=O)[C@@H](Cc2c[nH]c3ccccc23)NC(=O)[C@H](Cc2ccc(O)cc2)NC(=O)[C@H](C)N(C)C(=O)[C@H](Cc2ccccc2)NC1=O [Seglitide],remaining activity at 3.75 µM,[1]; Well no.=1452,97.2%
same,remaining activity at 1.25 µM,[2]; Well no.=1452,97%
C[Se]CC[C@H](N)C(=O)O [Selenomethionine],remaining activity at 3.75 µM,[1]; Well no.=4141,98.7%
same,remaining activity at 1.25 µM,[2]; Well no.=4141,97.8%
CC(C)[C@H](O)C(=O)N[C@@H](C)C(=O)N[C@@H]1C(=O)N(C)CCc2ccccc21 [Semagacestat (LY450139)],remaining activity at 3.75 µM,[1]; Well no.=4614,101%
same,remaining activity at 1.25 µM,[2]; Well no.=4614,102%
NNC(N)=O [Semicarbazide hydrochloride],remaining activity at 3.75 µM,[1]; Well no.=1406,99.4%
same,remaining activity at 1.25 µM,[2]; Well no.=1406,99.7%
C/C=C1/C[C@@H](C)[C@@](C)(O)C(=O)OCC2=CCN3CC[C@@H](OC1=O)[C@@H]23 [Senecionine],remaining activity at 3.75 µM,[1]; Well no.=3464,99.1%
same,remaining activity at 1.25 µM,[2]; Well no.=3464,98.3%
C[C@H](O)C(=O)C1=Nc2c(nc(N)[nH]c2=O)NC1 [Sepiapterin],remaining activity at 3.75 µM,[1]; Well no.=1183,96.3%
same,remaining activity at 1.25 µM,[2]; Well no.=1183,99.7%
CC1=C(C)C(=O)C(C(CCCCCC(=O)O)c2ccccc2)=C(C)C1=O (stereo not shown) [Seratrodast],remaining activity at 3.75 µM,[1]; Well no.=3857,102%
same,remaining activity at 3.75 µM,[1]; Well no.=7375,103%
same,remaining activity at 1.25 µM,[2]; Well no.=3857,98.1%
same,remaining activity at 1.25 µM,[2]; Well no.=7375,103%
c1ccc2c(CCNc3ccc(Nc4ccncc4)cc3)c[nH]c2c1 [Serdemetan],remaining activity at 3.75 µM,[1]; Well no.=6730,101%
same,remaining activity at 1.25 µM,[2]; Well no.=6730,97.7%
NCCc1c[nH]c2ccc(O)cc12 [Serotonin hydrochloride],remaining activity at 3.75 µM,[1]; Well no.=616,100%
same,remaining activity at 1.25 µM,[2]; Well no.=616,98.2%
Clc1ccc(C(Cn2ccnc2)OCc2csc3c(Cl)cccc23)c(Cl)c1 (stereo not shown) [Sertaconazole nitrate],remaining activity at 3.75 µM,[1]; Well no.=5411,93%
same,remaining activity at 1.25 µM,[2]; Well no.=5411,89.7%
Clc1ccc(C(Cn2ccnc2)OCc2csc3c(Cl)cccc23)c(Cl)c1 (stereo not shown) [Sertaconazole],remaining activity at 3.75 µM,[1]; Well no.=1840,98.3%
same,remaining activity at 1.25 µM,[2]; Well no.=1840,101%
O=C1NCCN1CCN1CCC(c2cn(-c3ccc(F)cc3)c3ccc(Cl)cc23)CC1 [Sertindole],remaining activity at 3.75 µM,[1]; Well no.=5420,102%
same,remaining activity at 3.75 µM,[1]; Well no.=6604,96.1%
same,remaining activity at 1.25 µM,[2]; Well no.=5420,98.4%
same,remaining activity at 1.25 µM,[2]; Well no.=6604,93.4%
O=C(O)Cn1c2c(c3cc(F)ccc31)CN(C(=O)c1cccc3ccccc13)CC2 [Setipiprant],remaining activity at 3.75 µM,[1]; Well no.=7707,103%
same,remaining activity at 1.25 µM,[2]; Well no.=7707,99.9%
CN1CCC2=C(C1)c1ccccc1Cc1ccccc12 [Setiptiline (maleate)],remaining activity at 3.75 µM,[1]; Well no.=6907,101%
same,remaining activity at 1.25 µM,[2]; Well no.=6907,101%
CN1CCC2=C(C1)c1ccccc1Cc1ccccc12 [Setiptiline],remaining activity at 3.75 µM,[1]; Well no.=6857,94.5%
same,remaining activity at 1.25 µM,[2]; Well no.=6857,98.8%
